For assay [1] the following is noted: relative to table sugar; cited from earlier work.
The test system of assay [2] is disrupted Pichia cells (released B-glu1 enzyme). Nature of the assay: hydrolysis of steviol glycosides by disrupted Pichia cells (crude extract), HPLC analysis. It is filed as biochemical, Pichia pastoris. Particulars: crude protein 50 ug in 300 ul, 1 g/L substrate, pH 7.2, 30-37° C.; FIG. 8 samples at 24 hours. The protocol:
Pichia cells were suspended in extraction buffer (50 mM potassium phosphate buffer, pH 7.2; 150 mM NaCl). After sonication, the supernatant (crude extract) was collected by centrifuge set at 12,000 g at 4° C. The resulting crude protein (50 ug) was tested in a 300 ul in vitro reaction system. The reaction system contains 50 mM potassium phosphate buffer, pH 7.2, 1 mg/ml steviol glycoside. The reaction was performed at 30-37° C. and 50 ul reaction was terminated by adding 200 μL 1-butanol at various time points. The samples were extracted three times with 200 μL 1-butanol. The pooled fraction was dried and dissolved in 100 μL 80% methanol for high-performance liquid chromatography (HPLC) analysis. HPLC analysis was then performed using a Dionex UPLC ultimate 3000 system (Sunnyvale, Calif.), including a quaternary pump, a temperature controlled column compartment, an auto sampler and a UV absorbance detector. A Synergi Hydro-RP column (Phenomenex) with guard column was used for the characterization of steviol glycosides in the pooled samples. Acetonitrile in water was used mobile phase in the HPLC analysis. The detection wavelength used in the HPLC analysis was 210 nm.

The test system of assay [3] is Beta-glucosidase (B-glu1, SEQ: 1). Nature of the assay: de-glycosylation (hydrolysis) of steviol glycosides by purified recombinant B-glu1, HPLC analysis. It is filed as biochemical, Pichia pastoris. Particulars: recombinant B-glu1 10 μg in 300 μl, 1 mg/ml steviol glycoside, 50 mM potassium phosphate pH 7.2, 30-37° C. The text has this:
According to the current disclosure Pichia pastoris genome analysis was completed and several beta-glycosidase candidate genes were identified. Full length DNA fragments of all candidate beta-glucosidase genes were commercially synthesized. Almost all codons of the cDNA were changed to those preferred for E. coli (Genscript, NJ). The synthesized DNA was cloned into a bacterial expression vector pETite N-His SUMO Kan Vector (Lucigen). These same experiments could be performed in Yarrowia lipolytica with sequences optimized for such use.
Each expression construct was transformed into E. coli BL21 (DE3), which was subsequently grown in LB media containing 50 μg/mL kanamycin at 37° C. until reaching an OD600 of 0.8-1.0. Protein expression was induced by addition of 1 mM isopropyl β-D-1-thiogalactopyranoside (IPTG) and the culture was further grown at 16° C. for 22 hr. Cells were harvested by centrifugation (3,000×g; 10 min; 4° C.). The cell pellets were collected and were either used immediately or stored at −80° C.
The cell pellets typically were re-suspended in lysis buffer (50 mM potassium phosphate buffer, pH 7.2, 25 ug/ml lysozyme, 5 ug/ml DNase I, 20 mM imidazole, 500 mM NaCl, 10% glycerol, and 0.4% Triton X-100). The cells were disrupted by sonication under 4° C., and the cell debris was clarified by centrifugation (18,000×g; 30 min). Supernatant was loaded to an equilibrated (equilibration buffer: 50 mM potassium phosphate buffer, pH 7.2, 20 mM imidazole, 500 mM NaCl, 10% glycerol) Ni-NTA (Qiagen) affinity column. After loading of protein sample, the column was washed with equilibration buffer to remove unbound contaminant proteins. The His-tagged beta-glucosidase recombinant polypeptides were eluted by equilibration buffer containing 250 mM imidazole.
The purified candidate beta-glucosidase recombinant polypeptides were assayed for de-glycosylation activity by using various steviol glycosides as substrate. Typically, the recombinant polypeptide (10 μg) was tested in a 300 μl in vitro reaction system. The reaction system contains 50 mM potassium phosphate buffer, pH 7.2, 1 mg/ml steviol glycoside. The reaction was performed at 30-37° C. and 50 ul reaction was terminated by adding 200 μL 1-butanol at various time points. The samples were extracted three times with 200 μL 1-butanol. The pooled fraction was dried and dissolved in 100 μL 80% methanol for high-performance liquid chromatography (HPLC) analysis.
HPLC analysis was then performed using a Dionex UPLC ultimate 3000 system (Sunnyvale, Calif.), including a quaternary pump, a temperature controlled column compartment, an auto sampler and a UV absorbance detector. A Synergi Hydro-RP column (Phenomenex) with guard column was used for the characterization of steviol glycosides in the pooled samples. Acetonitrile in water was used mobile phase in the HPLC analysis. The detection wavelength used in the HPLC analysis was 210 nm.

Each structure is given as a SMILES string.

Turning to `C=C1C[C@@]23CC[C@H]4[C@@](C)(CCC[C@@]4(C)C(=O)O[C@@H]4O[C@H](CO)[C@@H](O)[C@H](O)[C@H]4O)[C@@H]2CC[C@]1(O[C@@H]1O[C@H](CO)[C@@H](O)[C@H](O)[C@H]1O[C@@H]1O[C@H](CO)[C@@H](O)[C@H](O)[C@H]1O)C3` [Stevioside, stevioside], in assay [1], the “sweetness relative to sucrose” value is given as 100-150 times sweeter than sucrose. The “Products of hydrolysis by disrupted Pichia cells” value in assay [2] is “steviolbioside”. In assay [3], the “Products of hydrolysis of steviol glycoside substrate by B-glu1” value was “Steviolbioside (SB)”.

The record behind these values is patent US11414689B2, “Hydrolysis of steviol glycosides by beta-glucosidase” (Conagen Inc., priority 2017, dated 2022).
